Tests used:
[1] = system: rat isoprenaline model of heart failure; experiment: Plasma troponin T in rat isoprenaline model of heart failure; type: in vivo; conditions: DA rats; 2 weeks pre-treatment 200 mg/kg/day; isoprenaline 50 mg/kg i.p.; plasma 3 hr after
Protocol: The effect of racemic perhexyline, (+)-perhexyline and (−)-perhexyline on myocardial damage in a rat isoprenaline model of heart failure, using Troponin T as an indirect measure of myocardial damage was investigated. The use of a rat isoprenaline model of heart failure is as described in Teerlink, J R et al. (1994) “Progressive ventricular remodeling in response to diffuse isoproterenol-induced myocardial necrosis in rats” Circ Res, 75: 105-13.
DA rats were treated for 2 weeks with vehicle or 200 mg/kg/day of racemic, (+)- or (−)-perhexyline maleate, on day 15 myocardial necrosis was induced by i.p. injection of 50 mg/kg isoprenaline, with a second group of controls receiving an i.p. injection of saline (n=5). Cardiac troponin T levels were measured in plasma collected 3 hr following treatment by venipuncture of the tail vein.

[2] = clinical use of racemic drug; cited from earlier work
[3] = system: Dark Agouti (DA) rats; experiment: Histological (electron microscopy) assessment of hepatic lipid and glycogen content after 8 weeks of dosing; type: in vivo, rat; conditions: for hepatic glycogen content / hepatic lipid content: 200 mg/kg daily for 8 weeks, vs vehicle, 200 mg/kg
Protocol: Adult female Dark Agouti (DA) rats (n=4 in each group) were administered 200 mg/kg daily of vehicle, racemic-, (+) or (−)-perhexyline maleate for a period of 2 months. The perhexyline maleate compound was administered mixed with peanut paste and coated onto standard rat chow. On day 56 of dosing, animals were anesthetized and blood was collected via a cardiac puncture in order to determine the concentrations of perhexyline enantiomers. Animals were then euthanized and hepatic, cardiac and neuronal tissues were harvested in order to determine perhexyline enantiomer and metabolite tissue concentrations and morphological changes. Tissues were cut in half and either immediately snap frozen in liquid nitrogen or placed into fixative solution for electron microscopy analysis. Tissue was dissected into cubes of approximately 0.5 mm in each dimension and was fixed for one hour in electron microscopy (EM) fixative (4% formaldehyde and 1.5% glutaraldehyde in sodium cacodylate buffer, pH 7.2). The fixed tissue was post-fixed in 2% osmium tetroxide in sodium cacodylate buffer, en bloc stained with 2% uranyl acetate and dehydrated through 70%, 90% and 100% ethanol. Then, the tissue was processed through 1,2-epoxypropane, a 50/50 mixture of 1,2-epoxypropane and Procure 812 resin (Electron Microscopy Sciences, Fort Washington, USA) and two changes of 100% resin. Tissue and resin were transferred to Beem capsules and placed in an oven overnight at 90° C. Survey sections of tissue blocks were cut with glass knives and stained with Toluidine Blue. Thin sections were cut at approximately 100 nm thickness on a Porter-Blum ultramicrotome (Sorvall, Newtown, USA) using a diamond knife (Micro Star Technologies, Huntsville, USA). Thin sections were stained with Reynolds' lead citrate and examined in a Hitachi H-600 transmission electron microscope (Tokyo, Japan 1983). Glycogen and lipids were identified and total content was measured as a percentage of the field of view.

[4] = Perhexyline enantiomer concentrations in plasma, liver and heart; type: in vivo, rat; conditions: DA rats; for plasma concentration: pure enantiomer 200 mg/kg daily for 8 weeks
Protocol: Adult female Dark Agouti (DA) rats (n=4 in each group) were administered 200 mg/kg daily of vehicle, racemic-, (+) or (−)-perhexyline maleate for a period of 2 months. The perhexyline maleate compound was administered mixed with peanut paste and coated onto standard rat chow. On day 56 of dosing, animals were anesthetized and blood was collected via a cardiac puncture in order to determine the concentrations of perhexyline enantiomers. Animals were then euthanized and hepatic, cardiac and neuronal tissues were harvested in order to determine perhexyline enantiomer and metabolite tissue concentrations and morphological changes. Tissues were cut in half and either immediately snap frozen in liquid nitrogen or placed into fixative solution for electron microscopy analysis.
Plasma, liver and hear concentrations were measured in Dark Agouti rats treated for 8 weeks with 200 mg/kg/day of (+)-, (−)- or racemic-perhexyline (animals as described in Example 2) using the method of Davies et al., Journal of Chromatography B, 832 (2006) 114-120.
The data are shown in FIGS. 6A and 6B with concentrations adjusted to the equivalent of a 100 mg/kg enantiomeric dose.

[5] = system: Dark Agouti rats; experiment: Peripheral neural function by von Frey filament testing (paw withdrawal threshold); type: in vivo, rat; conditions: DA rats treated for 8 weeks, vs vehicle
Protocol: At 56 days, neuronal function was measured prior to euthanasia using von Frey filament testing. The thickness of each filament corresponds to a specific amount of pressure (in grams). Each animal was placed in a specifically designed plastic container, with the bottom replaced by mesh flooring. The animal was left for 10-15 minutes to settle into its new environment. In ascending order, von Frey filaments were applied from beneath the mesh flooring to the plantar surface of the paw until the filament buckled and was held there for a total of 10 seconds. A positive response was noted if the paw was withdrawn within the 10-second period. If a filament induced 6 positive responses, the grams corresponding to that filament were recorded as the paw withdrawal threshold.
To test the effect of each enantiomer on peripheral neural function, a Von Frey hairs model was used.

[6] = target: T1, human neutrophil NOX2 (Homo sapiens, UniProt P04839); experiment: Inhibition of ex vivo superoxide formation by NOX2 in human neutrophils; type: cell-based; conditions: neutrophils from 11 healthy young volunteers
T1 construct: Using neutrophils from 11 healthy young volunteers; endogenous in cells; host or cells: human neutrophils from healthy volunteers
T1 sequence (P04839 2-570 limits assumed): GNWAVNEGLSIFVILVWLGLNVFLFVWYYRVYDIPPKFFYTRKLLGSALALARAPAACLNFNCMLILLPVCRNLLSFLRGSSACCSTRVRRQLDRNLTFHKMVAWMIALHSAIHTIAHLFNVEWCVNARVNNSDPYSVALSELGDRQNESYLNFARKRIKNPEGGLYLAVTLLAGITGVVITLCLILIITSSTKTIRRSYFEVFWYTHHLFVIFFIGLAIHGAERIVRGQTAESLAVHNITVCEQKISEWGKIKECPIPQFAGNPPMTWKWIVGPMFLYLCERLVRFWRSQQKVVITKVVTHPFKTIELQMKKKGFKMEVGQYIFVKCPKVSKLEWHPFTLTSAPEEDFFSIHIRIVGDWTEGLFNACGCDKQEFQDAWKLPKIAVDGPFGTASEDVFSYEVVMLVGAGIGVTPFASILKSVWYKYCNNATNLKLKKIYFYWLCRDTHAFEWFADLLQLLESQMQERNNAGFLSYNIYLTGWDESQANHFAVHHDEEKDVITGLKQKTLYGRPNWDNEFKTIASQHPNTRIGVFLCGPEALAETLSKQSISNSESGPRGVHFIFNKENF
T1 sequence (P13498 2-195 partner limits assumed): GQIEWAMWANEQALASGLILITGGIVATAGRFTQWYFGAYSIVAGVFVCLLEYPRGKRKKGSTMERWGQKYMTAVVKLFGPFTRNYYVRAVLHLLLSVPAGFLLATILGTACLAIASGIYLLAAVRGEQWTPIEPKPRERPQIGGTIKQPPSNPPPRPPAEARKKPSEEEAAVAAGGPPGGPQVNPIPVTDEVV
Text: As an index of anti-inflammatory and nitric oxide-sparing potential, the relative potency of the enantiomers as inhibitors of ex vivo superoxide formation by NOX2 was investigated in human neutrophils.
Whilst this enantioselectivity is consistent with different therapeutic indices for the enantiomers, it can be seen that both still contribute to perhexyline's anti-inflammatory effects.

[7] = system: rat isoprenaline model; experiment: Histological assessment of isoprenaline-induced myocardial injury; type: in vivo; conditions: DA rats; 2 weeks pre-treatment 200 mg/kg/day; isoprenaline 50 mg/kg
Protocol: DA rats were treated for 2 weeks with vehicle or 200 mg/kg/day of racemic, (+)- or (−)-perhexyline maleate, on day 15 myocardial necrosis was induced by i.p. injection of 50 mg/kg isoprenaline, with a second group of controls receiving an i.p. injection of saline (n=5). Cardiac troponin T levels were measured in plasma collected 3 hr following treatment by venipuncture of the tail vein. […] The severity and extent of myocardial injury were assessed by a pathologist who was blinded to the treatment, and classified as: 0—no change; 1—mild (single mild focus of myocyte damage or multiple small foci with mild inflammatory cell infiltrate); 2—moderate (multiple larger foci of myocyte damage with moderate inflammatory cell infiltrate) and 3—severe (multiple larger foci of myocyte damage with severe inflammatory cell infiltrate or broad zone of necrosis with extensive inflammation). Results were analysed by dividing animals into two response groups 0-1: no or mild >1: moderate to severe.

[8] = system: TXNIP; experiment: Myocardial TXNIP staining (immunohistochemistry) after isoprenaline; type: in vivo, rat; conditions: DA rats; 2 weeks pre-treatment 200 mg/kg/day; isoprenaline 50 mg/kg
Text: CONT; *=P<0.05 c.f. ISO; ̂=P=0.05 c.f. ISO. […] T×NIP is a regulatory protein which couples substrate utilization and redox state. Increased expression of T×NIP is associated with increased oxidative stress, decreased insulin secretion, decreased glucose uptake and suppression of PPARα (a major nuclear transcription factor regulating lipid metabolism). Thus, both (−)-perhexyline and (+)-perhexyline may also exert cardioprotection via inhibition of T×NIP.

[9] = system: pyruvate dehydrogenase (PDH); experiment: Total and phosphorylated pyruvate dehydrogenase in heart tissue by Western blots; type: in vivo; conditions: DA rat heart; 2 weeks 200 mg/kg/day; isoprenaline 50 mg/kg
Protocol: DA rats were treated for 2 weeks with vehicle or 200 mg/kg/day of racemic, (+)- or (−)-perhexyline maleate, on day 15 myocardial necrosis was induced by i.p. injection of 50 mg/kg isoprenaline (HCl salt), with a second group of controls receiving an i.p. injection of saline (n=5-8). Total and phosphorylated pyruvate dehydrogenase in heart tissue was measured by Western blots.

[10] = 8 weeks 200 mg/kg/day, dose-adjusted

| SMILES | effect on isoprenaline-induced rise in plasma troponin T [1] | plasma concentration at which severe adverse effects (hepatotoxicity, peripheral neuropathy) are typically seen [2] | recipients with adverse effects [2] | hepatic glycogen content [3] | hepatic lipid content [3] | hepatic steatosis ([3]; 8 weeks, plasma concentrations similar to those causing hepatotoxicity in humans) | distribution into liver, pure enantiomer compared to the racemic formulation [4, 10] | plasma concentration [4] | neural sensory function (Von Frey hairs) [5] | EC50 [6] | isoprenaline-induced myocardial damage (histological score) [7] | isoprenaline-induced increase in myocardial TXNIP staining [8] | tissue distribution, pure enantiomer vs as part of the racemic formulation [4, 10] | PDH deactivation (measured as phosphorylated PDH) [9] | inhibition of PDH deactivation compared with (+)-perhexyline [9] | total PDH expression [9] |
| --- | --- | --- | --- | --- | --- | --- | --- | --- | --- | --- | --- | --- | --- | --- | --- | --- |
| C1CCC(C(CC2CCCCN2)C2CCCCC2)CC1 (racemic) [racemic perhexyline, 2-(2,2-dicyclohexylethyl) piperidine] | not affected | greater than 0.6 mg/L | more than 60% | – | – | – | – | – | – | – | – | – | – | – | – | – |
| C1CCC(C(CC2CCCCN2)C2CCCCC2)CC1 (single isomer, unassigned; (+)) [(+)-perhexyline, (+)-enantiomer of perhexyline] | not affected | – | – | appeared to decrease | significantly increased | causes hepatic steatosis | significantly increased | 520 to 800 ng/mL | significant decline | 1.8 µM | only partially attenuated | attenuated | – | – | – | – |
| C1CCC(C(CC2CCCCN2)C2CCCCC2)CC1 (single isomer, unassigned; (-)) [(−)-perhexyline, (−)-enantiomer of perhexyline] | exacerbated | – | – | significantly increased | no effect | – | – | 220 to 390 ng/mL | did not | 1.3 µM | attenuated | attenuated | similar | extremely potent inhibitor | more potent | did not affect |
